In PMC9234021 (Cell Reports, 2022):
Read-outs that look alike come from different tables or passages of the source. No end group written: not given here.

B1: SARS-CoV-2 E peptide, residues 48-58, acetylated at K53 (peptide)
peptide: NVSLVK(Ac)PSFYV
B2: SARS-CoV-2 E peptide, residues 58-68, acetylated at K63 (peptide)
peptide: VYSRVK(Ac)NLNSS

Key:
SARS-CoV-2 [1] = details: mouse, in vivo; cited from earlier work
[2] = identical treatment with JQ1 or ABBV-744, H&E
[3] = system: SARS-CoV-2 nucleocapsid (N) protein; format: in vivo, K18-hACE2 C57BL/6J mice; details: JQ1 50 mg/kg i.p. or ABBV-744 20 mg/kg oral once daily
BET proteins = details: cited from earlier work
SARS-CoV-2 [4] = system: SARS-CoV-2; parameters: species or system K18-hACE2 C57BL/6J mice; details: mouse, in vivo
SARS-CoV-2 [5] = format: cell-based, SARS-CoV-2 isolate USA-WA1/2020; details: p = 0.0004, three independent experiments in triplicate
[6] = system: lungs of SARS-CoV-2 infected mice; parameters: species or system K18-hACE2 C57BL/6J mice; details: mouse, in vivo
SARS-CoV-2 [7] = format: in vivo, K18-hACE2 C57BL/6J mice; details: JQ1 50 mg/kg i.p. or ABBV-744 20 mg/kg oral once daily, n = 5 per group
SARS-CoV-2 [8] = format: cell-based, SARS-CoV-2 isolate USA-WA1/2020; details: p = 0.0001, three independent experiments in duplicate
A549 cells = experiment: qRT-PCR of poly; format: cell-based
Calu3 cells [9] = format: cell-based
influenza A = details: cited from earlier work
A549-ACE2 cells = experiment: Cell viability; format: cell-based; details: A549-ACE2, 500 nM, 48 hours, CellTiter-Glo, relative to DMSO
Calu3 cells [10] = experiment: Cell viability; format: cell-based; details: Calu3, 500 nM, 48 hours, CellTiter-Glo, relative to DMSO
[11] = biological target: BRD4 second bromodomain BD2 (349-460), His-SUMO tag removed (UniProt O60885 349-460, 15N-labeled); experiment: NMR titration
[12] = pan-BET inhibitors, no reference given

Molecule	lung inflammation in healthy, uninfected mice [2]	immunohistochemical staining for SARS-CoV-2 N protein in lungs [3]	immune cell infiltration in the lungs (SARS-CoV-2 [4])	CCL2 expression in lungs [6]	CXCL9 expression in lungs [6]	CXCL10 expression in lungs [6]	IL1a expression in lungs [6]	IL6 expression in lungs [6]	ISG15 expression in lungs [6]	RIG-I expression in lungs [6]	increase in infectious particle production in lungs (SARS-CoV-2 [7])	bromodomain specificity (BET proteins; [12])	poly(I:C)-mediated induction of IFNB1 (A549 cells)	poly(I:C)-mediated induction of IL6 (A549 cells)	poly(I:C)-mediated induction of ISG15 (A549 cells)	IFNB1 expression (Calu3 cells [9])	IL6 expression (Calu3 cells [9])	ISG15 expression (Calu3 cells [9])	Kd [11]	other results
Cc1noc(C)c1-c1ccc2[nH]c(=O)n3c2c1OC[C@@H]3c1ccccn1 [INCB054329]																				lung pathology (SARS-CoV-2 [1]): severe lung pathology; viral RNA in the lungs (SARS-CoV-2 [1]): significant viral RNA in the lungs
CCNC(=O)c1cc2c(-c3cc(C(C)(C)O)ccc3Oc3c(C)cc(F)cc3C)cn(C)c(=O)c2[nH]1 [ABBV-744, N-Ethyl-4-[2-(4-fluoro-2,6-dimethyl-phenoxy)-5-(1-hydroxy-1-methyl-ethyl)phenyl]-6-methyl-7-oxo-1H-pyrrolo[2,3-c]pyridine-2-carboxamide]	did not experience lung inflammation	increased	decrease in immune cell infiltration	significant decreases	significant decreases	significant decreases	significant decreases	significant decreases	significant decreases	significant decreases	37 fold									bromodomain specificity (BET proteins; ABBV-744, ref Sheppard et al., 2020): specifically targets BD2-mediated interactions; increase in SARS-CoV-2 viral RNA (SARS-CoV-2 [5]): 3 fold; increase in infectious particle production (SARS-CoV-2 [8]): 3 fold
Cc1sc2c(c1C)C(c1ccc(Cl)cc1)=N[C@@H](CC(=O)OC(C)(C)C)c1nnc(C)n1-2 [JQ1]	did not experience lung inflammation	increased	decrease in immune cell infiltration	significant decreases	significant decreases	significant decreases	significant decreases	significant decreases	significant decreases	significant decreases	18 fold	disrupt BD1- and BD2-mediated interactions	dampened	dampened	dampened	suppressed	suppressed	suppressed		transcriptional activation of the antiviral response (influenza A): attenuates transcriptional activation of the antiviral response
Cc1sc2c(c1C)C(c1ccc(Cl)cc1)=N[C@@H](CC(=O)NCCCCCCCCNC(=O)COc1cccc3c1C(=O)N(C1CCC(=O)NC1=O)C3=O)c1nnc(C)n1-2 (stereo partly shown) [dBET6]												disrupt BD1- and BD2-mediated interactions	dampened	dampened	dampened	suppressed	suppressed	suppressed		viability (A549-ACE2 cells): non-toxic; viability (Calu3 cells [10]): non-toxic
B1																			610 ± 160 µM	
B2																			170 ± 60 µM	
